Test results: PubChem BioAssay AID1963864 (Molecular Pharmacology Branch, DTP, NCI, 2024)

Tested on: KRAS PDC multicell spheroid viability
Experiment: Anticancer human tumor 521955-158-R6-J3-PDC patient-derived pancreatic carcinoma cell line growth inhibition [KRAS2]
Conditions: for IC50: curve of first compound; for viability, T/C: stronger effect = lower value
Procedure, shortened: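 KRAS-mutant tumor cells were grown as spheroids with HUVEC endothelial cells and human MSCs as stroma. Targeted agents were tested alone and with KRAS pathway inhibitors. Doses started at or near clinical Cmax, or 10 microM, descending half-log.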

[1] = second compound 0.1 µM, first compound 0.01 µM
[2] = second compound 0.1 µM, first compound 0.0316 µM
[3] = second compound 0.1 µM, first compound 0.1 µM
[4] = second compound 0.1 µM, first compound 0.316 µM
[5] = second compound 0.1 µM, first compound 1 µM
[6] = second compound 0.1 µM, first compound 3.16 µM
[7] = second compound 0.316 µM, first compound 0.01 µM
[8] = second compound 0.316 µM, first compound 0.0316 µM
[9] = second compound 0.316 µM, first compound 0.1 µM
[10] = second compound 0.316 µM, first compound 0.316 µM
[11] = second compound 0.316 µM, first compound 1 µM
[12] = second compound 0.316 µM, first compound 3.16 µM
[13] = second compound 1 µM, first compound 0.01 µM
[14] = second compound 1 µM, first compound 0.0316 µM
[15] = second compound 1 µM, first compound 0.1 µM
[16] = second compound 1 µM, first compound 0.316 µM
[17] = second compound 1 µM, first compound 1 µM
[18] = second compound 1 µM, first compound 3.16 µM
[19] = second compound 3.16 µM, first compound 0.01 µM
[20] = second compound 3.16 µM, first compound 0.0316 µM
[21] = second compound 3.16 µM, first compound 0.1 µM
[22] = second compound 3.16 µM, first compound 0.316 µM
[23] = second compound 3.16 µM, first compound 1 µM
[24] = second compound 3.16 µM, first compound 3.16 µM
[25] = second compound 10 µM, first compound 0.01 µM
[26] = second compound 10 µM, first compound 0.0316 µM
[27] = second compound 10 µM, first compound 0.1 µM
[28] = second compound 10 µM, first compound 0.316 µM
[29] = second compound 10 µM, first compound 1 µM
[30] = second compound 10 µM, first compound 3.16 µM
[31] = second compound 0.1 µM, first compound 10 µM
[32] = second compound 0.316 µM, first compound 10 µM
[33] = second compound 1 µM, first compound 10 µM
[34] = second compound 3.16 µM, first compound 10 µM
[35] = second compound 10 µM, first compound 10 µM
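Also: drug exposure lasted seven days.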
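For viability, T/C in this document: 100% = DMSO vehicle wells and lower means fewer viable cells.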

Row | SMILES | IC50 (second compound 0.1 µM) | IC50 (second compound 0.316 µM) | IC50 (second compound 1 µM) | IC50 (second compound 3.16 µM) | IC50 (second compound 10 µM) | viability, T/C [2] | viability, T/C [3] | viability, T/C [4] | viability, T/C [5] | viability, T/C [6] | viability, T/C [8] | viability, T/C [9] | viability, T/C [10] | viability, T/C [11] | viability, T/C [14] | viability, T/C [15] | viability, T/C [20] | viability, T/C [21] | viability, T/C [26] | viability, T/C [27] | further results
1 | CC(=O)OC12COC1CC(O)C1(C)C(=O)C(O)C3=C(C)C(OC(=O)C(O)C(NC(=O)OC(C)(C)C)c4ccccc4)CC(O)(C(OC(=O)c4ccccc4)C21)C3(C)C (stereo not given) + CNCc1ccccc1-c1csc(C(C)Nc2nc(C)nc3cc(OC)c(OC)cc23)c1 | > 3160 nM | > 3160 nM | > 3160 nM | < 10 nM | < 10 nM | 67.6% | 72.9% | 82.2% | 85.6% | 96.1% | 64.7% | 69.9% | 60.6% | 92% | 70.6% | 73.8% | 72.7% | 0.72% | 0.32% | 0.53% | viability, T/C [1]: 68.7%; viability, T/C [7]: 70.4%; viability, T/C [12]: 93.7%; viability, T/C [13]: 75.3%; viability, T/C [16]: 83.6%; viability, T/C [17]: 94.8%; viability, T/C [18]: 98.1%; viability, T/C [19]: 0.42%; viability, T/C [22]: 1.02%; viability, T/C [23]: 3.04%; viability, T/C [24]: 130%; viability, T/C [25]: 1.35%; viability, T/C [28]: 0.88%; viability, T/C [29]: 0.31%; viability, T/C [30]: 0.89%
2 | CN(C)C/C=C/C(=O)Nc1cc2c(Nc3ccc(F)c(Cl)c3)ncnc2cc1O[C@H]1CCOC1 + CNCc1ccccc1-c1csc(C(C)Nc2nc(C)nc3cc(OC)c(OC)cc23)c1 | > 100 nM | > 100 nM | > 100 nM | 1.98 nM | < 0.316 nM | 55% | 53.6% | – | – | – | 58.3% | 56.7% | – | – | 50.8% | 53% | 58.9% | 2.28% | 0.26% | 0.44% | viability, T/C (second compound 0.1 µM, first compound 0.000316 µM): 82.2%; viability, T/C (second compound 0.1 µM, first compound 0.001 µM): 77.5%; viability, T/C (second compound 0.1 µM, first compound 0.00316 µM): 79.8%; viability, T/C [1]: 81.3%; viability, T/C (second compound 0.316 µM, first compound 0.000316 µM): 82.9%; viability, T/C (second compound 0.316 µM, first compound 0.001 µM): 77.8%; viability, T/C (second compound 0.316 µM, first compound 0.00316 µM): 64.8%; viability, T/C [7]: 71.9%; viability, T/C (second compound 1 µM, first compound 0.000316 µM): 98.4%; viability, T/C (second compound 1 µM, first compound 0.001 µM): 68.2%; viability, T/C (second compound 1 µM, first compound 0.00316 µM): 59.1%; viability, T/C [13]: 50.7%; viability, T/C (second compound 3.16 µM, first compound 0.000316 µM): 94.9%; viability, T/C (second compound 3.16 µM, first compound 0.001 µM): 106%; viability, T/C (second compound 3.16 µM, first compound 0.00316 µM): 0.33%; viability, T/C [19]: 0.98%; viability, T/C (second compound 10 µM, first compound 0.000316 µM): 0.34%; viability, T/C (second compound 10 µM, first compound 0.001 µM): 0.24%; viability, T/C (second compound 10 µM, first compound 0.00316 µM): 0.21%; viability, T/C [25]: 0.52%
3 | COC(=O)c1ccc2c(C(=Nc3ccc(N(C)C(=O)CN4CCN(C)CC4)cc3)c3ccccc3)c(O)[nH]c2c1 + CNCc1ccccc1-c1csc(C(C)Nc2nc(C)nc3cc(OC)c(OC)cc23)c1 | 3030 nM | 1840 nM | 3280 nM | < 31.6 nM | < 31.6 nM | 91% | 105% | 120% | 134% | 47.5% | 83.7% | 93.3% | 107% | 120% | 84.1% | 90.1% | 2.05% | 1.85% | 0.42% | 1.27% | viability, T/C [31]: 0.53%; viability, T/C [12]: 5.04%; viability, T/C [32]: 0.18%; viability, T/C [16]: 110%; viability, T/C [17]: 110%; viability, T/C [18]: 51.7%; viability, T/C [33]: 1.19%; viability, T/C [22]: 2.08%; viability, T/C [23]: 1.25%; viability, T/C [24]: 0.14%; viability, T/C [34]: 1.34%; viability, T/C [28]: 0.48%; viability, T/C [29]: 0.14%; viability, T/C [30]: 2.49%; viability, T/C [35]: 0.86%
4 | O=C(c1cc(Cc2n[nH]c(=O)c3ccccc23)ccc1F)N1CCN(C(=O)C2CC2)CC1 + CNCc1ccccc1-c1csc(C(C)Nc2nc(C)nc3cc(OC)c(OC)cc23)c1 | > 10000 nM | > 10000 nM | > 10000 nM | < 31.6 nM | < 31.6 nM | 72.8% | 79.4% | 75.4% | 71.6% | 66.7% | 65.6% | 65.3% | 64.6% | 62% | 61.3% | 68.7% | 1.32% | 3.56% | 0.13% | 0.47% | viability, T/C [31]: 71.9%; viability, T/C [12]: 56.5%; viability, T/C [32]: 66.5%; viability, T/C [16]: 62.8%; viability, T/C [17]: 55%; viability, T/C [18]: 64.3%; viability, T/C [33]: 62.9%; viability, T/C [22]: 0.56%; viability, T/C [23]: 0.32%; viability, T/C [24]: 3.02%; viability, T/C [34]: 0.56%; viability, T/C [28]: 1.37%; viability, T/C [29]: 0.65%; viability, T/C [30]: 0.77%; viability, T/C [35]: 0.19%
